# According to paper PMC8868285, “Pharmacological Inhibition of Epac1 Averts Ferroptosis Cell Death by Preserving Mitochondrial Integrity” (Antioxidants, 2022):
# How the values were obtained:
# HT-22 cells [1] = assay: Mitochondrial morphology (MitoTracker Deep Red, categories I-III); format: cell-based, mouse
# Protocol: Mitochondrial morphology was assessed using imaging of HT-22 cells stained with MitoTracker™Deep Red FM (Invitrogen, Oregon City, OR, USA, #M22426). Cells were treated with either erastin 1 µM, CE3F4 100 µM, or co-treated with erastin 1 µM and CE3F4 100 μM for 18 h. After the treatment, cells were incubated with 200 nM MitoTracker™Deep Red FM for 30 min at 37 °C. Untreated cells were included as controls. 4% paraformaldehyde (PFA) was used for fixation and detection of the MitoTracker fluorescence was achieved by 620 nm (excitation) and 700 ± 75 nm (detection). 500 cells per condition were counted and grouped into three different categories, based on their mitochondrial morphology/shape. The analysis and categorization of mitochondria was done by an investigator without previous knowledge of the various experimental conditions. Category I included healthy cells with mitochondria that form an elongated tubular network that is distributed equally throughout the cytosol. It could also include short mitochondria, but distributed in the cytosol. On the other hand, Category II included cells which contained large, and fragmented/granulated mitochondria around the nucleus. […] Category III represented damaged and dying cells with observed small rounded mitochondria of varying sizes and in proximity to the nucleus.. At least three independent experiments were performed.
# HT-22 cells [2] = assay: Mitochondrial superoxide, MitoSOX FACS
# Protocol: (§1) Flow cytometry analysis using the CytoFLEXS benchtop flow cytometer (Beckman Coulter Life Sciences, Indianapolis, IN, USA) was used to evaluate intracellular parameters that are associated with not only oxidative stress but also mitochondrial dysfunction, and cell death. HT-22 cells (40,000 cells/well) seeded in 24-well plates were treated with various conditions. Treatment groups included: control condition (DMSO 1%), erastin 1 µM or 1.5 µM, CE3F4 100 µM, and co-treatment of erastin and CE3F4. Three separate wells were analyzed for each condition and the same number of counts (10,000/well) were measured by flow cytometry. At least three independent experiments were performed, and the Kaluza Analysis 1.5 software was employed for quantification of data.
# MitoSOX dye (Invitrogen, Oregon City, OR, USA, #M36008, Lot#1924466) was used to evaluate mitochondrial ROS. The MitoSOX dye is able to permeate live cells and also selectively target mitochondria where it is swiftly oxidized by superoxides but not by other reactive oxygen species. […] Incubation of HT-22 cells with MitoSOX™ 1.25 μM dye was done for 30 min at 37 °C. Fluorescence excitation and detection were done at 488 nm and 690/50 nm respectively.
# HT-22 cells [3] = assay: Mitochondrial membrane potential, TMRE FACS; conditions: for effect on erastin-induced ΔΨm loss: no significant difference to control
# Protocol: as §1
# Staining with TMRE™ dye (tetramethylrhodamine-ethyl ester; Invitrogen, Oregon City, OR, USA, #T669) was used to determine loss of mitochondrial membrane potential (MMP) (ΔΨm). […] Collected cells were incubated for 20 min with TMRE 0.2 μM at 37 °C. Fluorescence excitation and detection were done at 488 nm 690/50 nm respectively.
# [4] = tested on: isolated mitochondria from HT-22 cells; assay: High-resolution respirometry (Oroboros) of isolated mitochondria; design: species or system mouse
# Protocol: Mitochondria were isolated from harvested HT-22 cells (4–8 × 10^7 cultivated in T75 flasks) using a semi-automated pump-controlled cell rupture system (PCC) (0.71 mL/min) with syringes (SGE, Trajan© Scientific, Ringwood, Australia) attached to a cell homogenizer (Isobiotech, EMBL, Heidelberg, Germany) (bead size of 10 μm suitable for HT-22 cells) and superimposed on a pump (ProSense B.V, Oosterhout, The Netherlands, #NE1000). Collected samples were centrifuged at 800 rpm for 10 min at 4 °C. The supernatant was further centrifuged at 9000× g for 10 min at 4 °C. The resulting pellet was the crude mitochondria. Finally, the mitochondria were suspended in an isolation buffer (HEPES 20 mM, sucrose 250 mM EDTA 3 mM, pH 7.5) for subsequent experiments. The whole procedure was executed on ice.
# The protein concentration of isolated mitochondria was determined using the Pierce™ BCA Protein Assay Kit (Pierce™ BCA Protein Assay Kit, Thermo Scientific, Rockford, IL, USA, #23225). Respiration of the isolated mitochondria from HT-22 cells was analyzed using the high-resolution respirometry oxygraph O2K (Oroboros Systems, Innsbruck, Austria). The isolated mitochondria (200 μg) prepared as previously described, were treated with either CE3F4, ESI-05, ethanol, or DMSO as appropriate for 25 min, followed by mitochondrial respiration measurements. Mitochondrial state 1 was determined by continuous stirring at 750 rpm in 1 mL of MiR05 buffer (MgCl2 3 mM, lactobionic acid 60 mM, EGTA 0.5 mM taurine 20 mM, KH2PO4 10 mM, D-Sucrose 110 mM, HEPES 20 mM, BSA, essential fatty acid-free1 g/L, pH adjusted to 7.4). DatLab software (Oroboros Systems, Innsbruck, Austria) was used to record real-time oxygen flux per tissue mass (pmol O2. s^−1 × mg^−1) at 37 °C and to perform oxygen polarography. States were described as, State 2: a non-phosphorylating respiration state which was assessed by addition of complex-I linked substrates, 5 mM pyruvate (Sigma–Aldrich Chemie GmbH, Steinheim, Germany #P-2256), and 2 mM malate (Sigma–Aldrich Chemie GmbH, Steinheim, Germany, #374318); State 3: the oxidative-phosphorylation capacity (OXPHOS) state, of complex-I linked activity or basal respiration was achieved by adding a saturating concentration of 0.8 mM ADP (Sigma–Aldrich Chemie GmbH, Steinheim, Germany, #A5285), this allowed for calculation of ADP-coupled repiration; State 4: Achieved by subsequent addition of oligomycin 0.1 μM/mL (Sigma–Aldrich Chemie GmbH, Steinheim, Germany, #O4876) following state 3, oligomycin blocks the ATP-synthase, thereby inhibiting proton passage; State 3U: Was assessed by incremental steps of 1 μM addition of FCCP—theprotonophore carbonyl cyanide 4-(trifluoromethoxy) phenylhydrazone (Sigma–Aldrich Chemie GmbH, Steinheim, Germany, #C2920), this allowed the calculation of the reserve capacity of the Electron Transport Chain (ETC); Finally, sodium dithionite (DTT, Sigma–Aldrich Chemie GmbH, Steinheim, Germany, #15,795-3) was added to reduce all residual oxygen that was present in the chamber and to calibrate the oxygen content in the chamber. The O2 slope (pmol × (mL/s)) of isolated mitochondria was the oxygen concentration and also the initial derivate of the oxygen concentration—a derivative of oxygen consumption. Measurements were recorded in intervals of 2 s by using a background correction after calibration of the polarographic oxygen sensors.
# HT-22 cells [5] = assay: Cell death assessment, FACS analysis of PI staining
# Protocol: as §1
# The amount of cell death after stimulation with erastin for 16–17 h was assessed by incubating trypsonized HT-22 cell suspension with propidium iodide (PI) (Invitrogen, Oregon City, OR, USA, #V13242, Lot #2008168) in a binding buffer. Incubation with the dye was for 30 min at RT. Fluorescence was detected at 494/518 and 535/617 for FITC and PI respectively.
# HT-22 cells [6] = assay: Lipid peroxidation, BODIPY FACS; conditions: 100 μM CE3F4 + erastin 1 μM
# Protocol: as §1
# The staining dye BODIPY 2 μM (Invitrogen, Karlsruhe, Germany, # D3861, Lot # 1890330) was used to estimate lipid peroxidation. Erastin treatment was done for 4 h. HT-22 cells were then stained for 30 min at RT, followed by a one-time wash with PBS and finally analyzed. Fluorescence excitation and detection were done at 488 nm and 530 nm respectively.
structure (smiles),measurement,setting,value
CC1CCc2c(cc(Br)c(F)c2Br)N1C=O (stereo not shown) [CE3F4],"mitochondrial morphology, category III",HT-22 cells [1]; 30 µM CE3F4 + erastin 1 μM vs erastin alone,significant decrease of category III mitochondrial fragmentation
same,mitochondrial morphology,HT-22 cells [1]; 100 μM CE3F4 + erastin 1 μM,completely abolished the effects of erastin on mitochondrial morphology
same,mitochondrial morphology,HT-22 cells [1]; CE3F4 alone (100 µM),did not alter mitochondrial morphology
same,mitochondrial superoxide levels,HT-22 cells [2]; 30 μM CE3F4 alone,shift towards the intermediate mitochondrial superoxide
same,mitochondrial superoxide levels (intermediate),"HT-22 cells [2]; 100 μM CE3F4 alone, compared with 30 μM",further increased
same,effect on erastin-mediated mitochondrial superoxide levels,HT-22 cells [2]; CE3F4 30 μM + erastin 1 μM,did not affect erastin-mediated effects on mitochondrial superoxide levels
same,effect on erastin-mediated mitochondrial superoxide levels,HT-22 cells [2]; CE3F4 100 μM + erastin,significantly attenuated the increase in high mitochondrial superoxide levels
same,effect on erastin-induced ΔΨm loss,HT-22 cells [3]; 100 µM CE3F4 + erastin 1 μM,significantly attenuated ΔΨm loss
same,effect on erastin-induced ΔΨm loss,HT-22 cells [3]; 100 µM CE3F4 + erastin 1.5 μM,significantly attenuated ΔΨm loss
same,mitochondrial membrane potential (ΔΨm),HT-22 cells [3]; CE3F4 alone,slight hyperpolarization
same,ADP-coupled respiration,[4]; 30 μM CE3F4,no significant differences
same,ADP-coupled respiration,[4]; 100 µM CE3F4,no significant differences
same,"mitochondrial respiration states (2, 3, 4, 3U)","[4]; CE3F4 30 μM and 100 μM, 25 min",no significant effect on any mitochondrial respiration states
same,effect on erastin-induced cell death (PI staining),HT-22 cells [5]; co-treatment 30 μM CE3F4 + erastin 1 μM,markedly attenuated
same,effect on erastin-induced cell death (PI staining),HT-22 cells [5]; co-treatment 100 μM CE3F4 + erastin 1 μM,markedly attenuated
same,effect on erastin-induced lipid peroxidation,HT-22 cells [6],significantly attenuated
